The subject of experiment [1] is Pseudomonas syringae pv. tomato (Pto) DC3000. Kind of experiment: Bacterial liquid culture growth curves (OD600), Pto DC3000. To be noted: 18.5 h, read-out: Absolute growth rate relative to mock control, Pto DC3000.
The test system of experiment [2] is Rhodococcus sp. Kind of experiment: Bacterial liquid culture growth curves (OD600), Rhodococcus sp. To be noted: 18.5 h, read-out: Absolute growth rate relative to mock control, Rhodococcus sp.
The subject of experiment [3] is Albugo laibachii. The experiment can be described thus: Albugo laibachii on A. thaliana, syringe infiltration of compound, visual scoring of disease severity. It is filed as in vivo. To be noted: in Arabidopsis thaliana, 100 μM in 1% DMSO syringe infiltrated into adult A. thaliana, visually scored at nine dpi, read-out: A. laibachii Inhibitory effect. The procedure:
A. thaliana seeds were stratified on moist soil (Einheitserde type A240, Stender, Germany) for seven days at 4° C. in darkness, before transfer into growth chambers with short day conditions (10 h light, 14 h darkness, 23/20° C., 60% humidity). After three weeks, seedlings were singularised and grown for three weeks further. After six weeks, A. thaliana plants were used for experiments and after infection they were transferred into SANYO (Panasonic MLR-352, Japan) growth cabinets (10 h light, 14 h darkness, 22/16° C.). Potato plants were grown from tubers by covering them with soil (Einheitserde type A240, Stender, Germany). The leaves of adult plants (˜4-6 weeks old) were cut off and kept in a moist environment for infection assays.
For regular Albugo sp. infections A. thaliana Ws-0 was sprayed with an Albugo sp. conidiospores solution. These spore solutions were prepared by harvesting sporulating leaf material at 14 days post infection (dpi) and adding water for rehydration of the spores. Spore solutions were hold on ice for ˜1 h, before filtering through miracloth (Merck Millipore, Germany) to remove dirt. Spores were counted and the solutions diluted to 22.2×10^4 conidiospores/ml. Albugo sp. spore solutions were sprayed uniformly on A. thaliana leaves (4.5 ml per six plants) using an airbrush gun. During spraying, plants were placed in a plastic bag and afterwards transferred into a cold room to incubate at 4° C. in darkness (˜16 h). The next morning, plants were transferred into plant growth cabinets, but left in clear bags to keep humidity high, which supports Albugo sp. infections. ˜24 h later plants were unbagged and further incubated under normal plant growth conditions.
Afterwards, the plants were kept in the lab for ˜1 h to let the leaves equilibrate again. The infiltrated plants were infected with Albugo sp., following the above-mentioned protocol. At 7 dpi, infiltrated leaves were phenotypically scored and harvested. The samples were frozen in liquid nitrogen and stored at −80° C. until DNA extraction for growth quantification via qPCR. For experiment 4, A. candida spore solutions were prepared as before and mixed with 10 mM stock solution of the test compound (100 μM end conc.). The mixture of spore solution and test compound was sprayed and incubated as for experiment 2 and 3.
• Fungicidal activity against other oomycetes was tested using isolates of the obligate biotrophic pathogen genus Albugo on Arabidopsis thaliana. The test compounds, 100 μM in 1% DMSO, were syringe infiltrated into adult A. thaliana and subsequently sprayed with aqueous spore solutions of Albugo laibachii or A. candida. In primary screenings, disease severity was visually screened and scored at nine days post infection (dpi) (Table 2+3).

Experiment [4] concerns Albugo laibachii. The experiment can be described thus: Albugo laibachii growth on A. thaliana after syringe infiltration, quantified via qPCR. It is filed as in vivo. To be noted: for inhibition at 100 µM: Albugo laibachii, in Arabidopsis thaliana, qPCR at 7 dpi, A. thaliana.
Experiment [5] has as its system Albugo candida. The experiment can be described thus: Albugo candida growth on A. thaliana after syringe infiltration, quantified via qPCR. To be noted: for inhibition at 100 µM: Albugo candida, in Arabidopsis thaliana, qPCR at 7 dpi, A. thaliana; for inhibition of A. candida growth (in words): Table 4, qPCR at 7 dpi. It is filed as in vivo.
Experiment [6] deals with Phytophthora infestans. The experiment can be described thus: whole plant or invertebrate. It is filed as in vivo. To be noted: in Solanum tuberosum, 120 h, read-out: P. infestans % inhibition.
Experiment [7] deals with P. infestans. Kind of experiment: whole plant or invertebrate. It is filed as in vivo. To be noted: Phytophthora infestans, in Solanum tuberosum, read-out: P. infestans % inhibition.

Counter-ions that a name gives are not always drawn.

Results on 24 molecules are retold here after patent US20250228242A1 (priority 2021, published 2025).

Take `Oc1ccc(-c2cc(-c3cccc(Br)c3)[nH]n2)cc1O` [Compound 4, 5-(3-Bromophenyl)-3-(3,4-dihydroxyphenyl)-1H-pyrazole]: the values for the activity at 100 µM in experiment [1] and in experiment [2] were 48% and -1%, respectively. In experiment [3], the inhibition at 100 µM lay within 5 to 30%.

As for `Oc1cc(-c2cc(-c3cc(Br)cc(Br)c3)[nH]n2)cc(O)c1O` [Compound 6, 5-(3,5-Dibromophenyl)-3-(3,4,5-trihydroxyphenyl)-1H-pyrazole], the activity at 100 µM stood at 73% in experiment [1] and 1% in experiment [2]. Further, in experiment [3], the inhibition at 100 µM was greater than 70%.

Regarding `Fc1cccc(-c2cc(-c3ccc4c(c3)OCO4)n[nH]2)c1` [Compound 7, 3-(1,3-Benzodioxol-5-yl)-5-(3-fluorophenyl)-1H-pyrazole], the figures for the activity at 100 µM in experiment [1] and in experiment [2] were 98% and 14%, respectively. For the same molecule, in experiment [3], the inhibition at 100 µM fell in the range of 30 to 70%.

For the molecule `Ic1cccc(-c2cc(-c3ccc4c(c3)OCO4)n[nH]2)c1` [Compound 8, 3-(1,3-Benzodioxol-5-yl)-5-(3-iodophenyl)-1H-pyrazole], the activity at 100 µM in experiment [1] is 100%; in experiment [2], 35%. Besides, in experiment [3], the inhibition at 100 µM fell in the range of 5 to 30%.

In the case of `COc1cccc(-c2cc(-c3ccc4c(c3)OCO4)n[nH]2)c1` [Compound 9, 3-(1,3-Benzodioxol-5-yl)-5-(3-methoxyphenyl)-1H-pyrazole], the results for the activity at 100 µM in experiment [1] and in experiment [2] were 100% and 8%, respectively. In addition, in experiment [3], the inhibition at 100 µM was 30 to 70%.

As for `Brc1ccccc1-c1cc(-c2ccc3c(c2)OCO3)n[nH]1` [Compound 10, 3-(1,3-Benzodioxol-5-yl)-5-(2-bromophenyl)-1H-pyrazole], the activity at 100 µM in experiment [1] is 111%; in experiment [2], 24%. The inhibition at 100 µM in experiment [4] turned out to be 36%; in experiment [5] it was 68%; in experiment [6], 82%. Also, in experiment [5], the “inhibition of A. candida growth (in words)” value is listed as “strong inhibition”.

For `FC(F)(F)c1cccc(-c2cc(-c3ccc4c(c3)OCO4)n[nH]2)c1` [Compound 11, 3-(1,3-Benzodioxol-5-yl)-5-[3-(trifluoromethyl)phenyl]-1H-pyrazole], the activity at 100 µM stood at 81% in experiment [1] and 110% in experiment [2]. Further, in experiment [3], the inhibition at 100 µM is 5 to 30%.

On to `Oc1ccc(-c2cc(-c3cccc(C(F)(F)F)c3)[nH]n2)cc1O` [Compound 12, 3-(3,4-Dihydroxyphenyl)-5-[3-(trifluoromethyl)phenyl]-1H-pyrazole], for which the activity at 100 µM is 104% in experiment [1] and -1% in experiment [2]. In experiment [6], the inhibition at 100 µM amounted to 76%.

As for `CN(C)c1ccc(-c2cc(-c3cccc(Br)c3)[nH]n2)cc1` [Compound 13, 5-(3-Bromophenyl)-3-[4-(dimethylamino)phenyl]-1H-pyrazole], in experiment [3], the inhibition at 100 µM is greater than 70%.

With `CN(C)c1cccc(-c2cc(-c3ccc4c(c3)OCO4)n[nH]2)c1` [Compound 14, 3-[3-(1,3-benzodioxol-5-yl)-1H-pyrazol-5-yl]-N,N-dimethylaniline], the activity at 100 µM in experiment [1] was found to be 100%; in experiment [2], 11%. Moreover, the inhibition at 100 µM in experiment [6] came to 71%.

Take `Oc1ccc(-c2cc(-c3cccc(F)c3)[nH]n2)cc1O` [Compound 16, 3-(3,4-Dihydroxyphenyl)-5-(3-fluorophenyl)-1H-pyrazole]: the activity at 100 µM was found to be 66% in experiment [1] and 0% in experiment [2]. Besides, the inhibition at 100 µM in experiment [3] was in the range of 30 to 70%.

Consider `Oc1ccc(-c2cc(-c3cccc(F)c3)on2)cc1O` [Compound 21, 3-(3,4-Dihydroxyphenyl)-5-(3-fluorophenyl)isoxazole], for which the activity at 100 µM came out at 93% in experiment [1] and 2% in experiment [2]. Besides, the inhibition at 100 µM in experiment [6] worked out at 70%.

Turning to `Oc1ccc(-c2noc(-c3cccc(F)c3)n2)cc1O` [Compound 25, 3-(3,4-Dihydroxyphenyl)-5-(3-fluorophenyl)-1,2,4-oxadiazole], the activity at 100 µM in experiment [1] amounted to 105%; in experiment [2] it was 1%. The inhibition at 100 µM in experiment [6] came to 79%.

As to `Oc1ccc(-c2cc(-c3ccc(O)c(O)c3)[nH]n2)cc1O` [Compound 27, 3,5-Bis(3,4-Dihydroxyphenyl)-1H-pyrazole hydrobromide], the activity at 100 µM in experiment [1] is 77%; in experiment [2], 98%. For the same molecule, in experiment [6], the inhibition at 100 µM was 62%.

For `COc1ccc(-c2cc(-c3cccc(Br)c3)[nH]n2)cc1OC` [Compound 29, 5-(3-Bromophenyl)-3-(3,4-dimethoxyphenyl)-1H-pyrazole], the activity at 100 µM in experiment [1] turned out to be 88%; in experiment [2] it was 62%. The inhibition at 100 µM in experiment [3] is 30 to 70%.

For the molecule `COc1ccc(-c2c[nH]c(-c3ccc(OC)c(OC)c3)n2)cc1OC` [Compound 30, 2,4-Bis(3,4-dimethoxyphenyl)-1H-imidazole], the activity at 100 µM in experiment [1] worked out at 109%; in experiment [2] it was 35%. The inhibition at 100 µM in experiment [6] worked out at 46%.

In the case of `COc1ccc(-c2cc(-c3ccc(O)cc3)[nH]n2)cc1OC` [Compound 32, 3-(3,4-Dimethoxyphenyl)-5-(4-hydroxyphenyl)-1H-pyrazole], the activity at 100 µM amounted to 90% in experiment [1] and 10% in experiment [2]. Also, the inhibition at 100 µM in experiment [6] was found to be 77%.

Regarding `COc1ccc(-c2cc(-c3cccc(O)c3)[nH]n2)cc1OC` [Compound 33, 3-(3,4-Dimethoxyphenyl)-5-(3-hydroxyphenyl)-1H-pyrazole], the activity at 100 µM in experiment [1] was found to be 90%; in experiment [2], 6%. In addition, the inhibition at 100 µM in experiment [6] was 85%; in experiment [7], 84%.

As for `Oc1cccc(-c2cc(-c3ccc4c(c3)OCO4)n[nH]2)c1` [Compound 34, 3-(1,3-Benzodioxol-5-yl)-5-(3-hydroxyphenyl)-1H-pyrazole], the activity at 100 µM was 56% in experiment [1] and -1% in experiment [2]. Further, the inhibition at 100 µM in experiment [3] was 30 to 70%.

Turning to `Clc1cccc(-c2cc(-c3ccc4c(c3)OCO4)n[nH]2)c1` [Compound 35, 3-(1,3-Benzodioxol-5-yl)-5-(3-chlorophenyl)-1H-pyrazole], the results for the activity at 100 µM in experiment [1] and in experiment [2] were 85% and 11%, respectively. In addition, the inhibition at 100 µM in experiment [3] lay in the range of 30 to 70%.

Turning to `Brc1ccc(-c2cc(-c3ccc4c(c3)OCO4)n[nH]2)cc1` [Compound 38, 3-(1,3-Benzodioxol-5-yl)-5-(4-bromophenyl)-1H-pyrazole], the figures for the inhibition at 100 µM in experiment [4], in experiment [5] and in experiment [3] were 50%, 53% and greater than 70%, respectively. Besides, the “inhibition of A. laibachii growth (in words)” value in experiment [4] (Table 4, qPCR at 7 dpi, p 5 0.05) is listed as “significantly inhibited”. Moreover, in experiment [5], the “inhibition of A. candida growth (in words)” value is given as “strong inhibition”.

`Nc1ccc(-c2cc(-c3cccc(Cl)c3)[nH]n2)cc1` [Compound 39, 3-(4-Aminophenyl)-5-(3-chlorophenyl)-1H-pyrazole]: the activity at 100 µM was 94% in experiment [1] and -1% in experiment [2]. Moreover, the inhibition at 100 µM in experiment [3] was in the range of 30 to 70%.

Turning to `Nc1ccc(-c2cc(-c3cccc(Br)c3)[nH]n2)cc1` [Compound 40, 3-(4-Aminophenyl)-5-(3-bromophenyl)-1H-pyrazole], the figures for the activity at 100 µM in experiment [1] and in experiment [2] were 91% and -1%, respectively. The inhibition at 100 µM in experiment [3] is greater than 70%.

For `Cn1nc(-c2ccc3c(c2)OCO3)cc1-c1cccc(Br)c1` [Compound 41, 3-(1,3-Benzodioxol-5-yl)-5-(3-bromophenyl)-1-methyl-1H-pyrazole], the figures for the activity at 100 µM in experiment [1] and in experiment [2] were 106% and 62%, respectively. The inhibition at 100 µM in experiment [3] was 30 to 70%.
